Assay results from patent EP2671597A1, “Chimeric constructs between glioma-homing peptide and cell-penetrating peptides, gHoPe2” (Cepep III AB, priority 2012, dated 2013).
Entries after “also recorded” stand apart in the source; their conditions may differ. Ends that are not written are not given here. FAM = 5(6)-carboxyfluorescein

Key:
human glioma cells (U87) = test: Cellular internalization by confocal microscopy; format: cell-based; conditions: 10 µM, 30 min incubation (Figure 3)
Procedure: (§1) U87 cells (1×10^4) were seeded in Lab-Tek® 8-well chamber slides to reach 50% confluence one day prior to experimentation. After 30 min of incubation with the peptide constructs in complete medium at 37°C, cells were washed four times with PBS, followed by the addition of trypan blue (0.1 %) in OptiMEM and examined using Olympus IX81 inverted microscope equipped with FluoView 1000 confocal system using a 60x water-immersion and 100x oil-immersion objectives and excitation at 488 nm (fluorescein). For the membrane association experiments the cells were incubated with FAM-labeled peptide for 30 min at 37°C in complete medium. After the incubation period, cells were washed once with PBS and re-suspended in fresh OptiMEM medium.
(§2) The cellular uptake of the chimeric peptides gHoPe2 and gHoPe3 in U87 cells, using confocal microscopy and flow cytometry is depicted in Figures 3 and 4, respectively.

U87 cells [1] = test: LDH leakage assay (membrane integrity); format: cell-based, human; conditions: FAM-labelled peptides, up to 20 µM, 48h, compared to 0.2% of Triton
Procedure: Membrane integrity was evaluated using LDH leakage assay (SIGMA-ALDRICH™ St. Louise, MO, USA), which measures lactate dehydrogenase release. Briefly, 1×10^4 cells were seeded 24h in 96-well plates before treatment with the peptides or peptide-drug conjugates, which was conducted in complete medium for 48h. Thereafter, LDH leakage was assessed according to the manufacturer's protocol. Untreated cells were defined as no leakage and 100% leakage was defined as total LDH release by lysing cells in 0.2% Triton X-100 in HKR buffer.
(§3) All figures are presented as mean ± SEM. The cell uptake data represent three independent experiments performed in duplicate. For toxicity measurements, a decrease in viability was considered significant at p <.001 using ANOVA Dunnett's multiple comparison test.

U87 cells [2] = test: MTS cell viability (proliferation) assay; format: cell-based, human; conditions: FAM-labelled peptides, up to 20 µM, 24h
Procedure: Long-term toxicity was evaluated using an MTS proliferation assay (Promega, Madison, WI, USA). The MTS assay measures the activity of mitochondrial dehydrogenases to convert tetrazolium salts into formazan. Briefly, 1×10^4 cells were seeded 24h in 96-well plates before treatment with the peptides or peptide-drug conjugates, which was conducted in complete medium for 24h. Thereafter, MTS proliferation assay was used according to the manufacturer's protocol. Untreated cells were defined as 100% viable.
as §3

human glioma cells = test: Cellular uptake by flow cytometry (FACS); format: cell-based; conditions: 30 min incubation (Figure 4)
Procedure: U87, HEK and Hela cells (5×10^4) were seeded 24 h prior to experiments into 24-well plates. Cells were incubated for 30 min in complete media after treatment with the peptide constructs. Thereafter, cells were washed four times with PBS and once with trypsin, suspended in ice-cold PBS and flow cytometry analysis was carried out with a BD LSR II flow cytometer (BD Biosciences, San Jose, CA, USA) equipped with a 488 nm argon laser and analyzed with FACSDiva software. The filter settings for excitation and emission were 480/530 nm bandpass (FL1) for FITC. Live cells were gated by forward/side scattering from a total of 10000 events.
as §2

[3] = tested on: intracranial glioblastoma; test: Biodistribution of FAM-labelled peptides, intracranial tumour model; format: in vivo, mice; conditions: i.v.; for uptake in lungs, heart, spleen, muscle and skin: animals with intracranial tumours, 3 h (Figure 8); for localization in intracranial tumour: 3 h before tissue collection, FAM fluorescence (Figures 6, 7)
Procedure: (§4) Localization of the peptide vectors was assessed postmortem after injecting FAM-labeled peptides in homozygous female nude mice (C.Cg/AnNTac-Foxn1nu, Taconic), bearing tumor xenografts either intracranially or subcutaneously. 8×10^5 U87 cells were resuspended in 100 µl (s.c tumor model) or in 5 µl (intracranial tumor model) of fresh DMEM medium, without serum and antibiotics. The xenografting was performed by implanting the cell suspension subcutaneously or intracranially into one of the striatums (stereotaxic coordinates A=+1, L=+2, V=+3.5). At the appearance of the first signs of tumor growth (for the subcutaneous tumors: tumor size of approx 300 mm^3; for the intracranial tumors: the first sign is usually weight loss), mice were injected i.v. (via tail vein) with the peptide constructs. For the biodistribution, 100 µl of 200 µM FAM-labeled peptide suspension (in saline) was used. This represents a dose of 4 mg/kg for a mouse of 20 g. At 3h post-injection, the animals were anesthetized and intracardially perfused with 50 ml of PBS, followed by 50 ml of fixation solution (4% w/v paraformaldehyde in PBS, pH 7.4). Tissues were collected, postfixed for 2h in the same fixation solution, cryoprotected in sucrose (10% for 24h, followed by 30% for 1 week, at 4°C), snap frozen in 2-methylbutane (AppliChem) kept on dry ice. The tissues were cut on a cryostat with a thickness of 10-15 µm, counterstained with DAPI (AppliChem) and mounted using Vectashield (Vector Labs) mounting media.
(§5) The biodistribution of FAM-labeled gHoPe2 was determined in two mouse tumour models. FAM-labeled gHo and gHoPe2 were injected 3h before tissue collection. The circulation time of 3 h was chosen from initial pilot experiments with 1 h, 3h, 6h and 24h circulation times, where the highest fluorescence in the tumor occurred at 3h.
Secondly, biodistribution of FAM-labeled gHo and gHoPe2, as well as FAM-labeled pVEC and gHoPe3 was assessed in a mouse model of intracranial glioblastoma. To estimate the general distribution of gHoPe2 within the glioma-containing brain, the whole coronal section was reconstructed from single microscopic images.

subcutaneous U87 tumor = test: Biodistribution of FAM-labelled peptides, subcutaneous tumour model; format: in vivo, mice; conditions: for localization in tumor tissue: i.v., 3 h before tissue collection, FAM fluorescence of cryosections (Figure 5)
Procedure: as §4, §5
Firstly, a mouse model of subcutaneous U87 tumor was used. […] We detected no FAM-labeled gHo in tumor tissue and none of the peptides in the (intact) brain tissue, the kidney, and liver.

HEK cells = test: Confocal microscopy, association of FAM-labelled targeting peptide with cells; format: cell-based, human; conditions: 20 µM, 30 minutes
Procedure: (§6) The human embryonic kidney 293 cell line (HEK 293) and human glioblastoma-astrocytoma, epithelial-like cell line U87 MG (American Type Culture Collection via LGC, Sweden) and cervical cancer HeLa cells were cultured in Dulbecco's Modified Eagle Medium (DMEM) with L-glutamine. Medium was supplemented with 10% FBS, sodium pyruvate (1 mM), penicillin (100 U/ml), streptomycin (100 µg/ml) and 1% nonessential amino acids (further denoted as complete medium) (PAA Laboratories GmbH, Austria). Cell cultures were cultivated at 37°C in a humidified 5% CO2 incubator.
as §1
(§7) To confirm binding of the targeting peptide with glioma cells, gHo peptide was labeled with fluorescent marker FAM (see the composition in Table 1) and incubated with U87 glioma cells as well as with two non-neuronal cell lines, HeLa and HEK, for 30 minutes at the room temperature, followed by mild washing of the cells.

U87 glioma cells = test: as above; format: cell-based, human
Procedure: as §6, §1, §7

HeLa cells = test: as above; format: cell-based; conditions: 20 µM, 30 minutes
Procedure: as §6
as §1, with “OptiMEM medium. […]” for “OptiMEM medium.”

subcutaneous U87 tumors = test: Antitumour effect in vivo, tumour growth; design: species or system mice; conditions: 8.3 mg/kg (369 µM, 100 µl) i.v. twice a week; Tukey post-hoc p<.05 (Figure 13)
Procedure: Localization of the peptide vectors was assessed postmortem after injecting FAM-labeled peptides in homozygous female nude mice (C.Cg/AnNTac-Foxn1nu, Taconic), bearing tumor xenografts either intracranially or subcutaneously. 8×10^5 U87 cells were resuspended in 100 µl (s.c tumor model) or in 5 µl (intracranial tumor model) of fresh DMEM medium, without serum and antibiotics. The xenografting was performed by implanting the cell suspension subcutaneously or intracranially into one of the striatums (stereotaxic coordinates A=+1, L=+2, V=+3.5). At the appearance of the first signs of tumor growth (for the subcutaneous tumors: tumor size of approx 300 mm^3; for the intracranial tumors: the first sign is usually weight loss), mice were injected i.v. (via tail vein) with the peptide constructs. For the biodistribution, 100 µl of 200 µM FAM-labeled peptide suspension (in saline) was used. This represents a dose of 4 mg/kg for a mouse of 20 g. […]
The tumor treatments were performed using 1 mg/kg doxorubicin (369 µM, 100 µl, for an animal of 20 g) and an equivalent dose (8.3 mg/kg) of dox-gHoPe2 (369 µM, 100 µl) i.v. twice a week. The subcutaneous tumor dimensions were measured using calibre; tumor volume was calculated as (length × width^2)/2.
The efficacy of dox-gHoPe2 was assessed in the model of subcutaneous U87 tumors. […]

## LLIILRRRIRKQAHAHSK-NH2 [FAM-pVEC] ({FAM}-LLIILRRRIRKQAHAHSK-NH2) [pVEC N-terminally labelled with 5(6)-carboxyfluorescein, reference compound]
Human glioma cells (U87)
  Cellular internalization: exhibited cellular uptake of varying degrees
U87 cells [1]
  LDH leakage (membrane leakage): did not affect cell viability
U87 cells [2]
  cell viability (MTS): did not affect cell viability
Human glioma cells
  cellular uptake: highest

## LLIILRRRIRKQAHAHSK-NH2 [pVEC, 18-amino acid cell-penetrating peptide derived from murine vascular endothelial-cadherin, reference compound]
Human glioma cells (U87)
  Cellular internalization: internalized very efficiently
U87 cells [1]
  LDH leakage (membrane leakage): did not induce any significant membrane leakage
U87 cells [2]
  cell viability (MTS): did not induce any toxic effects

## LLIILRRRIRKQAHAHSK-NHQQQNPHQPPM-NH2 [FAM-gHoPe2]
[3]
  uptake in lungs, heart, spleen, muscle and skin: No uptake
  localization in intracranial tumour: localizes in tumours
[3]; 3 h (Figure 7)
  presence in adjacent intact brain, kidney and liver: not
[3]; listed as FAM-labelled gHoPe2
  localization in intracranial tumour: global FAM localization in the tumour area
[3]; listed as gHoPe2
  localization in intracranial tumour: can be seen in the tumor area; also recorded: specific localization
[3]; whole coronal section, 3 h (Figure 6)
  localization in the adjacent intact brain: not
Human glioma cells (U87)
  Cellular internalization: exhibited cellular uptake of varying degrees
U87 cells [1]
  LDH leakage (membrane leakage): did not affect cell viability
U87 cells [1]; listed as gHoPe2
  LDH leakage (membrane leakage): did not induce any significant membrane leakage
U87 cells [2]
  cell viability (MTS): did not affect cell viability
U87 cells [2]; listed as gHoPe2
  cell viability (MTS): did not induce any toxic effects
Human glioma cells
  cellular uptake: highest; also recorded: significantly differed from the uptake values of FAM-gHoPe3 (main effect p<.01, Tukey post hoc) and FAM-gHo (p<.001)
Subcutaneous U87 tumor
  localization in tumor tissue: localizes in tumours; also recorded: homing
Subcutaneous U87 tumor; initial pilot experiments with 1 h, 3h, 6h and 24h circulation times, tumour model not stated
  circulation time of the highest fluorescence in the tumor: 3 h

## NHQQQNPHQPPM-LLIILRRRIRKQAHAHSK-NH2 [FAM-gHoPe3]
Human glioma cells (U87)
  Cellular internalization: exhibited cellular uptake of varying degrees; also recorded: internalized, but to a lesser extent
U87 cells [1]
  LDH leakage (membrane leakage): did not affect cell viability
U87 cells [1]; listed as gHoPe3
  LDH leakage (membrane leakage): did not induce any significant membrane leakage
U87 cells [2]
  cell viability (MTS): did not affect cell viability
U87 cells [2]; listed as gHoPe3
  cell viability (MTS): did not induce any toxic effects

## NHQQQNPHQPPM-NH2 [FAM-gHo] ({FAM}-NHQQQNPHQPPM-NH2; also: FAM label, place not given here) [gHo N-terminally labelled with 5(6)-carboxyfluorescein]
Human glioma cells (U87)
  Cellular internalization: no uptake
Subcutaneous U87 tumor
  localization in tumor tissue: detected no

## NHQQQNPHQPPM-NH2 [gHo, glioma-homing targeting peptide]
[3]
  uptake in lungs, heart, spleen, muscle and skin: No uptake
  localization in intracranial tumour: not
Human glioma cells (U87)
  Cellular internalization: did not internalize
U87 cells [1]
  LDH leakage (membrane leakage): did not induce any significant membrane leakage
HEK cells
  binding to HEK cells: not and did not bind
U87 glioma cells; 20 µM (Figure 2)
  Association of the targeting peptide gHo with glioma cells (U87): associated
U87 glioma cells; FAM-labelled peptide, all tested concentrations 1-20 µM, 30 minutes, mild washing
  association of gHo with U87: confirmed association
Human glioma cells
  cellular uptake: did not internalize
HeLa cells
  binding to HeLa cells: not and did not bind

## XCLLIILRRRIRKQAHAHSK-NHQQQNPHQPPM-NH2 [Dox-gHoPe2]
Subcutaneous U87 tumors
  tumor size versus untreated group: significantly smaller
